{
  "source": "patent US20260028340A1",
  "about": "(Supernus Pharmaceuticals, Inc., priority 2023, published 2026)",
  "key": {"[1]": {"assay": "Stability in water and in a pH 7.4 buffer", "assay_type": "physicochemical", "details": "after 24 hours", "protocol": "A sample of the 15 mg isolated material was evaluated for stability in water and in a pH 7.4 buffer. After 24 hours, the sample in water had 86% remaining and the sample in the pH 7.4 buffer had 92% remaining. The decomposition gave mainly the ring-opened Compound A as a byproduct.\n(§1) 3,3-dimethylacrylic acid (96 mg, 0.96 mmol) and HATU (366 mg, 0.96 mmol) were mixed in 2 mL of DMF and 280 μL of DIPEA was added to the mixture. After the addition of Compound A (183 mg, 0.64 mmol), the mixture was stirred for 2 min. Additional DIPEA (280 μL) was added to the solution, and the yellow solution was stirred at room temperature for 2 hr. After the addition of water, the mixture was extracted with EtOAc (4×). The extract was washed with brine (4×), was dried over MgSO4, and was evaporated. […] This material was purified by prep HPLC to obtain 58 mg of II-7 (86% pure) that contained a later eluting byproduct. A sample was assayed for stability in water (63% at the 24-hour time point) and in a pH 7.4 buffer (77% at the 24 hour time point)."}, "[2]": {"assay": "Storage stability in acetonitrile or acetonitrile/water solution at room temperature", "assay_type": "physicochemical", "details": "for decomposition in acetonitrile/water: crude product in acetonitrile/water, kept at room temperature overnight", "protocol": "Preparatory HPLC of the crude product gave a mixture of the desired compound in addition to some Compound A (formed during the HPLC separation). After the product was treated with dichloromethane, the solution was dried over MgSO4, and was evaporated to give 15 mg of the ether derivative I-5 as an oily solid (97.7% by HPLC). After the sample was stored for 2 days at room temperature (RT) in acetonitrile solution, it had decomposed to approximately 85% purity with the main byproduct being a ring-opened form of Compound A.\nas §1\nGeranic acid ([…], 0.96 mmol) and HATU (366 mg, 0.96 mmol) were mixed in 2 mL of DMF. Following the addition of 280 μL of DIPEA to the solution, Compound A (180 mg, 0.64 mmol) was added to the solution, and the mixture was stirred for 2 min. Additional DIPEA (280 μL) was added, and the yellow solution was stirred at room temperature for 2 hr. Following the addition of water, the mixture was extracted with EtOAc (4×). The extract was washed with brine (4×), was dried over MgSO4, and was evaporated. The crude product II-9 appeared by HPLC to be over 70% in one peak."}},
  "data": [
    {"compound": "COC(=O)COC1(c2ccc(Cl)cc2)c2ccccc2C2=NCCN21", "note": "(stereo not shown) [Compound I-5, methyl 2-((5-(4-chlorophenyl)-2,5-dihydro-3H-imidazo[2,1-a]isoindol-5-yl)oxy)acetate]", "values": [
      {"measurement": "remaining, stability in pH 7.4 buffer", "setting": "[1]", "value": 92, "unit": "%"},
      {"measurement": "remaining, stability in water", "setting": "[1]", "value": 86, "unit": "%"},
      {"measurement": "purity after storage in acetonitrile solution", "setting": "[2]; stored for 2 days at room temperature in acetonitrile solution, initial 97.7% by HPLC", "value": "approximately 85%"}
    ]},
    {"compound": "CC(C)=CC(=O)N1CCN=C1c1ccccc1C(=O)c1ccc(Cl)cc1", "note": "[II-7, 1-(2-(2-(4-chlorobenzoyl)phenyl)-4,5-dihydro-1H-imidazol-1-yl)-3-methylbut-2-en-1-one]", "values": [
      {"measurement": "remaining, stability in pH 7.4 buffer", "setting": "[1]", "value": 77, "unit": "%"},
      {"measurement": "remaining, stability in water", "setting": "[1]", "value": 63, "unit": "%"},
      {"measurement": "decomposition in acetonitrile/water", "setting": "[2]", "value": "significant decomposition occurred"}
    ]},
    {"compound": "CC(C)=CCC/C(C)=C/C(=O)N1CCN=C1c1ccccc1C(=O)c1ccc(Cl)cc1", "note": "[II-9, (E)-1-(2-(2-(4-chlorobenzoyl)phenyl)-4,5-dihydro-1H-imidazol-1-yl)-3,7-dimethylocta-2,6-dien-1-one]", "values": [
      {"measurement": "decomposition in acetonitrile/water", "setting": "[2]", "value": "complete decomposition occurred"}
    ]}
  ]
}
